One data set has as its target T1, MAO-B (Homo sapiens, UniProt P27338).
T1 sequence (P27338 1-520): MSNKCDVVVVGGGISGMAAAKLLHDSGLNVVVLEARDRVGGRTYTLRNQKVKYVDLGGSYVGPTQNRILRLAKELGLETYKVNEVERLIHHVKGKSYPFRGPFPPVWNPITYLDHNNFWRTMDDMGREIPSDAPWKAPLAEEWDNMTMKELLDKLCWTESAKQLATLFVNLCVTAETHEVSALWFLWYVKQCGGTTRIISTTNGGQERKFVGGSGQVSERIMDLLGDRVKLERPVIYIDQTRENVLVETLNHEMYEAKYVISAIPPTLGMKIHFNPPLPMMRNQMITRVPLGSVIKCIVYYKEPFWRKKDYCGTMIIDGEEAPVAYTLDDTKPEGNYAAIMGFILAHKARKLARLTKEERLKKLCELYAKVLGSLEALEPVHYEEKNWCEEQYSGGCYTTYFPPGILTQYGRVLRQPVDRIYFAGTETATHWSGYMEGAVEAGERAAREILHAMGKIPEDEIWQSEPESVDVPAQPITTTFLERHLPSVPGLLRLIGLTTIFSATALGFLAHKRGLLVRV
Put plainly: biochemical. Particulars: for remaining activity at 10 µM: read-out: Residual Activity at 10 µM (%) MAO-B.

The target of a further data set is T2, hMAO-A (Homo sapiens, UniProt P21397).
T2 sequence (P21397 1-527): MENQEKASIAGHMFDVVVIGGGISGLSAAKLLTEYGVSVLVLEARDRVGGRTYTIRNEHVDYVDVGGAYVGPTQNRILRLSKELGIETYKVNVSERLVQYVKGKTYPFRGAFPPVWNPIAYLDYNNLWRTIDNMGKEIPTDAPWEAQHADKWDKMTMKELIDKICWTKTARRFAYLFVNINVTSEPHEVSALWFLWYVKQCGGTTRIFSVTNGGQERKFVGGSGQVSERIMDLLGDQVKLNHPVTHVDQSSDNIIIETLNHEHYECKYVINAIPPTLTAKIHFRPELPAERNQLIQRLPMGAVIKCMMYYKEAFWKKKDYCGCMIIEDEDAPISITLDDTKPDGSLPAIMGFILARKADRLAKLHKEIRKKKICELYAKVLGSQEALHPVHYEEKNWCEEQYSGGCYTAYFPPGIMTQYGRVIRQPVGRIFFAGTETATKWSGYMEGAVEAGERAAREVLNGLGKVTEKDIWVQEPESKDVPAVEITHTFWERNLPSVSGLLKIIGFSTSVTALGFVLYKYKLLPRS
Nature of the data set: Inhibition of recombinant hMAO-A, kynuramine substrate, continuous absorbance method. Particulars: for remaining activity at 10 µM: read-out: Residual Activity at 10 µM (%) MAO-A.

The nature of data set [1]: PAMPA for blood-brain barrier permeation. The conditions noted are these: class from Pe. Format: in vitro ADME.

For the molecule `O=C(Cn1nc(N2CCC(Cc3ccccc3)CC2)ccc1=O)NN=Cc1ccccc1` [Compound S1], at MAO-B, the IC50 – broadly, the concentration that gives 50% inhibition – was determined as 7.05 ± 0.086 µM and the remaining activity at 10 µM was 36.5 ± 8.32%. Besides, at hMAO-A, the IC50 worked out at 16.47 ± 0.047 µM and the remaining activity at 10 µM was found to be 63.4 ± 2.24%.

Take `O=C(Cn1nc(N2CCC(Cc3ccccc3)CC2)ccc1=O)NN=Cc1ccc(Br)cc1` [Compound S2]: on MAO-B, the IC50 was 10.7 ± 0.565 µM and the remaining activity at 10 µM is 56.5 ± 4.99%. In addition, on hMAO-A, the IC50 is 10.9 ± 1.19 µM and the remaining activity at 10 µM came out at 54.8 ± 3.1%.

Consider `O=C(Cn1nc(N2CCC(Cc3ccccc3)CC2)ccc1=O)NN=Cc1ccccc1Br` [Compound S3, N′-2-bromobenzylidene-2-(3-(4-benzylpiperidin-1-yl)-6-oxopyridazin-1(6H)-yl)acetohydrazide], for which the IC50 on MAO-B is 4.75 ± 0.155 µM; on hMAO-A it was 4.13 ± 1.12 µM. Besides, the remaining activity at 10 µM at MAO-B was 50.59 ± 0.01%; at hMAO-A it was 34.4 ± 1.93%.

Regarding `O=C(Cn1nc(N2CCC(Cc3ccccc3)CC2)ccc1=O)NN=Cc1cccc(Br)c1` [Compound S4, N′-3-bromobenzylidene-2-(3-(4-benzylpiperidin-1-yl)-6-oxopyridazin-1(6H)-yl)acetohydrazide], on MAO-B, 6.17 ± 0.155 µM corresponded to half-maximal inhibition (IC50) and the remaining activity at 10 µM is 33.5 ± 2.5%. On hMAO-A, the IC50 was 27 ± 0.797 µM and the remaining activity at 10 µM turned out to be 56.9 ± 9.78%.

For `O=C(Cn1nc(N2CCC(Cc3ccccc3)CC2)ccc1=O)NN=Cc1ccc(Cl)cc1` [Compound S6], on MAO-B, half-maximal inhibition (IC50) was put at 4.95 ± 0.353 µM and the remaining activity at 10 µM was 26.7 ± 3.83%. For the same molecule, at hMAO-A, the IC50 came out at 7.14 ± 1.07 µM and the remaining activity at 10 µM was 42.2 ± 3.22%.

Take `O=C(Cn1nc(N2CCC(Cc3ccccc3)CC2)ccc1=O)NN=Cc1cccc(F)c1` [Compound S7, N′-3-fluorobenzylidene-2-(3-(4-benzylpiperidin-1-yl)-6-oxopyridazin-1(6H)-yl)acetohydrazide]: on MAO-B, inhibition was half-maximal at 1.711 ± 0.009 µM (IC50) and the remaining activity at 10 µM is 1.03 ± 4.63%. Moreover, at hMAO-A, the IC50 was 4.74 ± 0.624 µM and the remaining activity at 10 µM was determined as 12.8 ± 7.24%.

As for `O=C(Cn1nc(N2CCC(Cc3ccccc3)CC2)ccc1=O)NN=Cc1ccc(F)cc1` [Compound S8], at MAO-B, it took 5.37 ± 0.123 µM to reach half-maximal inhibition (IC50) and the remaining activity at 10 µM came to 31.9 ± 2.62%. Also, at hMAO-A, the IC50 was 7.99 ± 1.28 µM and the remaining activity at 10 µM is 22.4 ± 3.07%.

For the molecule `Cc1ccccc1C=NNC(=O)Cn1nc(N2CCC(Cc3ccccc3)CC2)ccc1=O` [Compound S9, N′-2-methylbenzylidene-2-(3-(4-benzylpiperidin-1-yl)-6-oxopyridazin-1(6H)-yl)acetohydrazide], at MAO-B, the IC50 was 7.24 ± 0.994 µM and the remaining activity at 10 µM was determined as 32.9 ± 5.19%. Besides, at hMAO-A, the IC50 was 4.51 ± 0.589 µM and the remaining activity at 10 µM is 23.2 ± 1.2%.

For `Cc1cccc(C=NNC(=O)Cn2nc(N3CCC(Cc4ccccc4)CC3)ccc2=O)c1` [Compound S10, N′-3-methylbenzylidene-2-(3-(4-benzylpiperidin-1-yl)-6-oxopyridazin-1(6H)-yl)acetohydrazide], at MAO-B, the IC50 stood at 3.549 ± 0.001 µM and the remaining activity at 10 µM came to 9.31 ± 2.04%. Further, at hMAO-A, the IC50 amounted to 4.53 ± 0.424 µM and the remaining activity at 10 µM was found to be 16.1 ± 4.26%.

On to `COc1cccc(C=NNC(=O)Cn2nc(N3CCC(Cc4ccccc4)CC3)ccc2=O)c1` [Compound S11], for which, on MAO-B, the IC50 is 1.71 ± 0.437 µM and the remaining activity at 10 µM is 14.5 ± 1.14%. Besides, at hMAO-A, the IC50 was determined as 5.064 ± 0.006 µM and the remaining activity at 10 µM turned out to be 16.6 ± 9.23%.

For `COc1ccc(C=NNC(=O)Cn2nc(N3CCC(Cc4ccccc4)CC3)ccc2=O)cc1` [Compound S12], the IC50 on MAO-B is 6.463 ± 0.035 µM; at hMAO-A, 4.642 ± 0.001 µM. For the same molecule, the remaining activity at 10 µM on MAO-B worked out at 38.46 ± 0.36%; on hMAO-A it was 7.71 ± 8.25%.

Regarding `CN(C)c1ccc(C=NNC(=O)Cn2nc(N3CCC(Cc4ccccc4)CC3)ccc2=O)cc1` [Compound S13], at MAO-B, the IC50 was 6.48 ± 0.559 µM and the remaining activity at 10 µM is 37.6 ± 2.5%. At hMAO-A, the IC50 turned out to be 5.63 ± 1.18 µM and the remaining activity at 10 µM was 36.1 ± 1.01%.

Consider `O=C(Cn1nc(N2CCC(Cc3ccccc3)CC2)ccc1=O)NN=Cc1ccc([N+](=O)[O-])cc1` [Compound S14], for which, on MAO-B, the midpoint of inhibition, the IC50, lay at 3.62 ± 0.54 µM and the remaining activity at 10 µM amounted to 39.8 ± 4.14%. At hMAO-A, the IC50 was determined as 24.2 ± 0.283 µM and the remaining activity at 10 µM was found to be 67.1 ± 5.19%.

With `CCc1ccc(C=NNC(=O)Cn2nc(N3CCC(Cc4ccccc4)CC3)ccc2=O)cc1` [Compound S15, N′-4-ethylbenzylidene-2-(3-(4-benzylpiperidin-1-yl)-6-oxopyridazin-1(6H)-yl)acetohydrazide], the figures for the IC50 at MAO-B and at hMAO-A were 5.34 ± 0.667 µM and 3.69 ± 0.655 µM, respectively. Besides, the remaining activity at 10 µM on MAO-B is 54.4 ± 4.05%; on hMAO-A it was 30.1 ± 8.1%.

With `N#Cc1cccc(C=NNC(=O)Cn2nc(N3CCC(Cc4ccccc4)CC3)ccc2=O)c1` [Compound S17, N′-3-cyanobenzylidene-2-(3-(4-benzylpiperidin-1-yl)-6-oxopyridazin-1(6H)-yl)acetohydrazide], at MAO-B, the IC50 was 3.1 ± 0.088 µM and the remaining activity at 10 µM was 0%. In addition, at hMAO-A, the IC50 turned out to be 6.28 ± 0.306 µM and the remaining activity at 10 µM amounted to 9.98 ± 0.57%.

For `N#Cc1ccc(C=NNC(=O)Cn2nc(N3CCC(Cc4ccccc4)CC3)ccc2=O)cc1` [Compound S18, N′-4-cyanobenzylidene-2-(3-(4-benzylpiperidin-1-yl)-6-oxopyridazin-1(6H)-yl)acetohydrazide], at MAO-B, the IC50 was found to be 3.51 ± 0.811 µM and the remaining activity at 10 µM came out at 48.37 ± 0.08%. Besides, at hMAO-A, the IC50 was 7.19 ± 0.201 µM and the remaining activity at 10 µM was found to be 35.9 ± 2.54%.

For the molecule `COc1ccccc1C=NNC(=O)Cn1nc(N2CCC(Cc3ccccc3)CC2)ccc1=O` [Compound S19, N′-2-methoxybenzylidene-2-(3-(4-benzylpiperidin-1-yl)-6-oxopyridazin-1(6H)-yl)acetohydrazide], the remaining activity at 10 µM on MAO-B is 20.8 ± 1.76%; on hMAO-A, 7.83 ± 2.05%. At hMAO-A, the IC50 stood at 4.66 ± 0.307 µM.

Consider `COc1cc(C=NNC(=O)Cn2nc(N3CCC(Cc4ccccc4)CC3)ccc2=O)cc(OC)c1` [Compound S20, N′-3,5-dimethoxybenzylidene-2-(3-(4-benzylpiperidin-1-yl)-6-oxopyridazin-1(6H)-yl)acetohydrazide], for which, on MAO-B, the IC50 is 3.63 ± 0.142 µM and the remaining activity at 10 µM was determined as 11.7 ± 2.41%. In addition, on hMAO-A, the half-maximal inhibitory concentration (IC50) was found to be 19 ± 2.71 µM and the remaining activity at 10 µM was 68 ± 4.21%.

For the molecule `COc1cc(OC)c(C=NNC(=O)Cn2nc(N3CCC(Cc4ccccc4)CC3)ccc2=O)c(OC)c1` [Compound S21, N′-2,4,6-trimethoxybenzylidene-2-(3-(4-benzylpiperidin-1-yl)-6-oxopyridazin-1(6H)-yl)acetohydrazide], the IC50 against MAO-B worked out at 6.12 ± 0.662 µM; at hMAO-A, 7.47 ± 0.344 µM. In addition, the remaining activity at 10 µM at MAO-B came out at 48.5 ± 6.43%; on hMAO-A, 32.8 ± 2.18%.

As to `COc1cccc(C=NNC(=O)Cn2nc(N3CCC(Cc4ccccc4)CC3)ccc2=O)c1OC` [Compound S22, N′-2,3-dimethoxybenzylidene-2-(3-(4-benzylpiperidin-1-yl)-6-oxopyridazin-1(6H)-yl)acetohydrazide], at MAO-B, half-maximal inhibition (IC50) was put at 7.87 ± 0.208 µM and the remaining activity at 10 µM came to 39 ± 2.83%. For the same molecule, on hMAO-A, the IC50 is 5.94 ± 0.264 µM and the remaining activity at 10 µM was -8.5 ± 2.12%.

Regarding `COc1cc(C=NNC(=O)Cn2nc(N3CCC(Cc4ccccc4)CC3)ccc2=O)cc(OC)c1OC` [Compound S23, N′-3,4,5-trimethoxybenzylidene-2-(3-(4-benzylpiperidin-1-yl)-6-oxopyridazin-1(6H)-yl)acetohydrazide], on MAO-B, the IC50 was determined as 10.9 ± 0.405 µM and the remaining activity at 10 µM was 53.1 ± 2.67%. On hMAO-A, the IC50 stood at 28.4 ± 2.95 µM and the remaining activity at 10 µM worked out at 78.79 ± 0.3%.

With `COc1ccc(C=NNC(=O)Cn2nc(N3CCC(Cc4ccccc4)CC3)ccc2=O)c(OC)c1` [Compound S24, N′-2,4-dimethoxybenzylidene-2-(3-(4-benzylpiperidin-1-yl)-6-oxopyridazin-1(6H)-yl)acetohydrazide], the IC50 against MAO-B was 10.7 ± 2.48 µM; at hMAO-A it was 4.13 ± 0.107 µM. In addition, the remaining activity at 10 µM amounted to 54.7 ± 3.76% on MAO-B and 20.7 ± 1.34% at hMAO-A.

`C#CCN(C)Cc1ccccc1` [Pargyline, reference compound]: the remaining activity at 10 µM at hMAO-A was 19.9 ± 6.82%.

As to `C#CCN(C)[C@H](C)Cc1ccccc1` [Selegiline, reference compound], the “Prediction (BBB permeation class)” value in data set [1] was “CNS+ (Pe (10^−6 cm·s^−1) > 4.00: CNS+ (high permeation))”.

These data come from paper PMC11243598, “Inhibition of Monoamine Oxidases by Pyridazinobenzylpiperidine Derivatives” (Molecules, 2024).
